Test results taken from the supplement of paper PMC10307832.

How the values were obtained:
Assay in all cases: relative viability (nuclei count vs DMSO), 5 days (fraction); higher = more cells survive
Afatinib + Tozasertib = compound: CN(C)C/C=C/C(=O)Nc1cc2c(Nc3ccc(F)c(Cl)c3)ncnc2cc1O[C@H]1CCOC1 [Afatinib] + Cc1cc(Nc2cc(N3CCN(C)CC3)nc(Sc3ccc(NC(=O)C4CC4)cc3)n2)n[nH]1 [Tozasertib] (partner 0.1 µM)
How it was run: (§1)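 One day after seeding in 1536-well plates, lung cancer cell lines were dosed by pin tool. Dosing was either single-drug or a fixed anchor-drug dose plus five library-drug doses (not always all listed) in √10 steps. After 5 days, nuclei were stained in one fix-and-stain step and counted on 4× images, and relative viability is the nuclei count of treated wells over that of vehicle wells, given as the median of duplicate plates.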

Afatinib + Foretinib = compound: CN(C)C/C=C/C(=O)Nc1cc2c(Nc3ccc(F)c(Cl)c3)ncnc2cc1O[C@H]1CCOC1 [Afatinib] + COc1cc2c(Oc3ccc(NC(=O)C4(C(=O)Nc5ccc(F)cc5)CC4)cc3F)ccnc2cc1OCCCN1CCOCC1 [Foretinib] (partner 0.25 µM)
How it was run: as §1

Afatinib + AZD7762 = compound: CN(C)C/C=C/C(=O)Nc1cc2c(Nc3ccc(F)c(Cl)c3)ncnc2cc1O[C@H]1CCOC1 [Afatinib] + NC(=O)Nc1cc(-c2cccc(F)c2)sc1C(=O)N[C@H]1CCCNC1 [AZD7762] (partner 0.2 µM)
How it was run: as §1

Afatinib + Luminespib = compound: CN(C)C/C=C/C(=O)Nc1cc2c(Nc3ccc(F)c(Cl)c3)ncnc2cc1O[C@H]1CCOC1 [Afatinib] + CCNC(=O)c1noc(-c2cc(C(C)C)c(O)cc2O)c1-c1ccc(CN2CCOCC2)cc1 [Luminespib] (partner 0.01 µM)
How it was run: as §1

Cell Line | relative viability (Afatinib + Tozasertib; first compound 0.005 µM) | relative viability (Afatinib + Tozasertib; first compound 0.01581 µM) | relative viability (Afatinib + Tozasertib; first compound 0.05 µM) | relative viability (Afatinib + Tozasertib; first compound 0.1581 µM) | relative viability (Afatinib + Tozasertib; first compound 0.5 µM) | relative viability (Afatinib + Foretinib; first compound 0.005 µM) | relative viability (Afatinib + Foretinib; first compound 0.01581 µM) | relative viability (Afatinib + Foretinib; first compound 0.05 µM) | relative viability (Afatinib + Foretinib; first compound 0.1581 µM) | relative viability (Afatinib + Foretinib; first compound 0.5 µM) | relative viability (Afatinib + AZD7762; first compound 0.005 µM) | relative viability (Afatinib + AZD7762; first compound 0.01581 µM) | relative viability (Afatinib + AZD7762; first compound 0.05 µM) | relative viability (Afatinib + AZD7762; first compound 0.1581 µM) | relative viability (Afatinib + AZD7762; first compound 0.5 µM) | relative viability (Afatinib + Luminespib; first compound 0.005 µM) | relative viability (Afatinib + Luminespib; first compound 0.01581 µM) | relative viability (Afatinib + Luminespib; first compound 0.05 µM) | relative viability (Afatinib + Luminespib; first compound 0.1581 µM) | relative viability (Afatinib + Luminespib; first compound 0.5 µM)
LC-2-ad | 0.507 | 0.48 | 0.439 | 0.483 | 0.431 | 0.815 | 0.718 | 0.565 | 0.565 | 0.6 | 0.782 | 0.713 | 0.559 | 0.411 | 0.46 | 1.01 | 1.05 | 1.13 | 1.08 | 1.05
LCLC-97TM1 | 0.248 | 0.247 | 0.159 | 0.268 | 0.179 | 1 | 0.906 | 0.894 | 0.808 | 0.907 | 0.164 | 0.259 | 0.186 | 0.42 | 0.18 | 0.785 | 0.862 | 0.708 | 0.722 | 0.68
LCLC-103H | 0.425 | 0.508 | 0.441 | 0.516 | 0.49 | 0.832 | 0.814 | 0.734 | 0.834 | 0.846 | 0.758 | 0.814 | 0.758 | 0.781 | 0.78 | 0.779 | 1.04 | 0.968 | 0.784 | 0.917
LK-2 | 0.161 | 0.173 | 0.2 | 0.182 | 0.166 | 0.994 | 1.13 | 0.851 | 1.06 | 0.997 | 0.465 | 0.328 | 0.371 | 0.329 | 0.521 | 0.191 | 0.185 | 0.185 | 0.188 | 0.192
LOU-NH91 | 0.475 | 0.444 | 0.527 | 0.51 | 0.479 | 0.541 | 0.524 | 0.592 | 0.497 | 0.568 | 0.707 | 0.704 | 0.76 | 0.679 | 0.637 | 0.319 | 0.295 | 0.325 | 0.326 | 0.311
LU99A | 0.275 | 0.273 | 0.256 | 0.254 | 0.231 | 0.957 | 0.818 | 0.831 | 0.77 | 0.785 | 0.238 | 0.41 | 0.37 | 0.257 | 0.293 | 0.198 | 0.294 | 0.25 | 0.343 | 0.305
LXF-289 | 0.146 | 0.146 | 0.2 | 0.152 | 0.214 | 0.983 | 0.977 | 0.905 | 0.91 | 0.884 | 1.05 | 1.03 | 1.11 | 1.02 | 1.02 | 0.748 | 0.604 | 0.719 | 0.656 | 0.564
NCI-H23 | 0.356 | 0.366 | 0.321 | 0.391 | 0.315 | 0.99 | 1.02 | 1.02 | 0.847 | 0.951 | 0.17 | 0.226 | 0.237 | 0.23 | 0.195 | 0.226 | – | 0.2 | 0.209 | 0.216
NCI-H322M | 0.386 | 0.329 | 0.307 | 0.304 | 0.313 | 0.765 | 0.566 | 0.493 | 0.535 | 0.449 | 0.433 | 0.407 | 0.389 | 0.402 | 0.348 | 0.705 | 0.566 | 0.443 | 0.496 | 0.405
NCI-H358 | 0.0992 | 0.111 | 0.0922 | 0.0887 | 0.076 | 0.512 | 0.423 | 0.286 | 0.167 | 0.197 | 0.406 | 0.373 | 0.284 | 0.273 | 0.22 | 0.27 | 0.0409 | 0.189 | 0.101 | 0.125
NCI-H441 | 0.757 | 0.788 | 0.67 | 0.532 | 0.494 | 1.22 | 0.837 | 0.987 | 0.742 | 0.75 | 1.56 | 0.993 | 1.09 | 1.16 | 1.1 | 0.442 | 0.431 | 0.325 | 0.249 | 0.222
NCI-H460 | 0.487 | 0.511 | 0.407 | 0.269 | 0.395 | 0.987 | 0.895 | 0.943 | 1.07 | 0.978 | 0.396 | 0.595 | 0.62 | 0.635 | 0.603 | 0.0369 | 0.0258 | 0.0533 | 0.0327 | 0.032
NCI-H596 | 0.848 | 0.881 | 0.92 | 0.777 | 0.772 | 0.811 | 0.952 | 0.675 | 0.643 | 0.873 | 1.06 | 1.01 | 1.11 | 1.09 | 0.901 | 1.01 | 1 | 0.894 | 0.778 | 0.984
NCI-H647 | 0.251 | 0.263 | 0.417 | 0.211 | 0.276 | 1.21 | 1.1 | 1.21 | 1.11 | 1.14 | 0.32 | 0.426 | 0.403 | 0.525 | 0.466 | 0.169 | 0.26 | 0.12 | 0.183 | 0.158
NCI-H650 | 0.846 | 0.735 | 0.782 | 0.721 | 0.683 | 1.13 | 0.997 | 1.06 | 1.02 | 0.998 | 0.832 | 0.886 | 1.03 | 1.04 | 0.904 | 0.841 | 0.816 | 0.791 | 0.814 | 0.788
NCI-H727 | 0.597 | 0.614 | 0.543 | 0.514 | 0.449 | 0.82 | 0.588 | 0.762 | 0.709 | 0.752 | 0.574 | 0.467 | 0.527 | 0.515 | 0.543 | 0.404 | – | 0.416 | 0.282 | 0.345
